Measurements: paper doi:10.1101/2023.11.24.568596v1 (biorxiv, 2023)

Experiments:
Conditions in all cases: binder
ABL1 = ABL1 (Homo sapiens, UniProt P00519)
NDR2 = NDR2 (Homo sapiens, UniProt Q9Y2H1)
BRPF1 = target: T1, BRPF1 (Homo sapiens, UniProt P55201)
T1 sequence (P55201 1-1214): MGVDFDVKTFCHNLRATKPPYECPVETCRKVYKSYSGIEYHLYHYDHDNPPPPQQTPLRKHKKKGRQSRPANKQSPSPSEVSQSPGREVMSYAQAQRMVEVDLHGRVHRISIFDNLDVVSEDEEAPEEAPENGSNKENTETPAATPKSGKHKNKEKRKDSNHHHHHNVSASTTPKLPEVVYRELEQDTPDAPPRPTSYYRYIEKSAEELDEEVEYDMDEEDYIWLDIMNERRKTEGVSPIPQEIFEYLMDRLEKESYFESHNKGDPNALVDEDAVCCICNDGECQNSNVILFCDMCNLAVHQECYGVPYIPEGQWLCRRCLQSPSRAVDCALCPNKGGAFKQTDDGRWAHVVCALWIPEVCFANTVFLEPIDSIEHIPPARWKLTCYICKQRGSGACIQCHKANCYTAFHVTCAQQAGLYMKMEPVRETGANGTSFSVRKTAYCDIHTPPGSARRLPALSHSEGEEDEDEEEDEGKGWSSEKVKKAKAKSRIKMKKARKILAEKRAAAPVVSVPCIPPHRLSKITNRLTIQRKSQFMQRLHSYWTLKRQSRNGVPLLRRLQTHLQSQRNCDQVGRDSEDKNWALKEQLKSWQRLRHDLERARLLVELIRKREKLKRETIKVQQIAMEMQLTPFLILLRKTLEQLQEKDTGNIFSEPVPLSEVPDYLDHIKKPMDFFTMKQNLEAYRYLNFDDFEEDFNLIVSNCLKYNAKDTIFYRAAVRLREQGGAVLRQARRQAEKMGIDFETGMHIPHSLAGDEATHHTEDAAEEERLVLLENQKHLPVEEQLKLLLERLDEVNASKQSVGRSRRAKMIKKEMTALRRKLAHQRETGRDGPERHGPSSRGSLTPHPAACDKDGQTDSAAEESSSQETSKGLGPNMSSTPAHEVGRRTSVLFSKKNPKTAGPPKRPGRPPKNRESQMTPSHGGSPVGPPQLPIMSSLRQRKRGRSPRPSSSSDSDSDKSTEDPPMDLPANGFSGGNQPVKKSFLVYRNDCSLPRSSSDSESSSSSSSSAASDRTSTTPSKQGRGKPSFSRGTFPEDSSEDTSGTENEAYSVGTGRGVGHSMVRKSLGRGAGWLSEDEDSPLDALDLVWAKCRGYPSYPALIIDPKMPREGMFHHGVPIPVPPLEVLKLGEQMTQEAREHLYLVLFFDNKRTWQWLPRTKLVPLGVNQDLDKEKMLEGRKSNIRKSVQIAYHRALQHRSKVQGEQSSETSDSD

AKT3 = AKT3 (Homo sapiens, UniProt Q9Y243)
Chain of AKT3 (Q9Y243 whole entry): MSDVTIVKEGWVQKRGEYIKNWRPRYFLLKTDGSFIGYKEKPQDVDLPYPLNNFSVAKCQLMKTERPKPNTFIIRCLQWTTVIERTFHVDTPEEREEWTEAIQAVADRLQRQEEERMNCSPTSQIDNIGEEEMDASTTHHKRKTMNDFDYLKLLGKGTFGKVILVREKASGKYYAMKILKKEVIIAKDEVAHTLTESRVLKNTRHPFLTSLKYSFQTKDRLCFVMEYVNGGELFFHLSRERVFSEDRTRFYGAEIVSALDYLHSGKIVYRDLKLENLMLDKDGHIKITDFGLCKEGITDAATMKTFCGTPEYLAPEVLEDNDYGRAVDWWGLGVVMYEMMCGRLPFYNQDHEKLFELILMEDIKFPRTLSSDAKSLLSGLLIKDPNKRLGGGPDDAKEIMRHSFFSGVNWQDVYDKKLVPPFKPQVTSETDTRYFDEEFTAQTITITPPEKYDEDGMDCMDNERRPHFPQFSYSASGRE

FGFR2 = FGFR2 (Homo sapiens, UniProt P21802)
Chain of FGFR2 (P21802 whole entry): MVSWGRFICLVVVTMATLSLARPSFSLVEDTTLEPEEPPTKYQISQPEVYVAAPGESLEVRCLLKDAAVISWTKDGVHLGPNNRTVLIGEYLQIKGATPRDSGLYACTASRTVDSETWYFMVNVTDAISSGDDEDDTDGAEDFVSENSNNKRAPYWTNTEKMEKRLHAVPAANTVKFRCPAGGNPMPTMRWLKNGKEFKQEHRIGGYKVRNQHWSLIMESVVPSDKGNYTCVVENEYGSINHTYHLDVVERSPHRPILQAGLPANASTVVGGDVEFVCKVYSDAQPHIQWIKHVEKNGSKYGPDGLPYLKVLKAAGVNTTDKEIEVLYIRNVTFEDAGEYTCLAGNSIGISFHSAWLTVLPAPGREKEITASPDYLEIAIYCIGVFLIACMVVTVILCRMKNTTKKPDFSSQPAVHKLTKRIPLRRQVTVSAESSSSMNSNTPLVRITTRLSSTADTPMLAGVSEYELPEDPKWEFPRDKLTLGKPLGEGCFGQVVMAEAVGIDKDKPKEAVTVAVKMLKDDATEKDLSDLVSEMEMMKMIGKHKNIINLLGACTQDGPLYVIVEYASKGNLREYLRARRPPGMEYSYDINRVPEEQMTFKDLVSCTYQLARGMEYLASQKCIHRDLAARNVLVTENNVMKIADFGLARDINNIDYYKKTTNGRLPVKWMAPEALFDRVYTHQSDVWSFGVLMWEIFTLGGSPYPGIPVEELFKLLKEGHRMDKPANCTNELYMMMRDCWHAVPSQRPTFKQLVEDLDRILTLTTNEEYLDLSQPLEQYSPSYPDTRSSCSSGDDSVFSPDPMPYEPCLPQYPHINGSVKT

AAK1 = AAK1 (Homo sapiens, UniProt Q2M2I8)
Chain of AAK1 (Q2M2I8 whole entry): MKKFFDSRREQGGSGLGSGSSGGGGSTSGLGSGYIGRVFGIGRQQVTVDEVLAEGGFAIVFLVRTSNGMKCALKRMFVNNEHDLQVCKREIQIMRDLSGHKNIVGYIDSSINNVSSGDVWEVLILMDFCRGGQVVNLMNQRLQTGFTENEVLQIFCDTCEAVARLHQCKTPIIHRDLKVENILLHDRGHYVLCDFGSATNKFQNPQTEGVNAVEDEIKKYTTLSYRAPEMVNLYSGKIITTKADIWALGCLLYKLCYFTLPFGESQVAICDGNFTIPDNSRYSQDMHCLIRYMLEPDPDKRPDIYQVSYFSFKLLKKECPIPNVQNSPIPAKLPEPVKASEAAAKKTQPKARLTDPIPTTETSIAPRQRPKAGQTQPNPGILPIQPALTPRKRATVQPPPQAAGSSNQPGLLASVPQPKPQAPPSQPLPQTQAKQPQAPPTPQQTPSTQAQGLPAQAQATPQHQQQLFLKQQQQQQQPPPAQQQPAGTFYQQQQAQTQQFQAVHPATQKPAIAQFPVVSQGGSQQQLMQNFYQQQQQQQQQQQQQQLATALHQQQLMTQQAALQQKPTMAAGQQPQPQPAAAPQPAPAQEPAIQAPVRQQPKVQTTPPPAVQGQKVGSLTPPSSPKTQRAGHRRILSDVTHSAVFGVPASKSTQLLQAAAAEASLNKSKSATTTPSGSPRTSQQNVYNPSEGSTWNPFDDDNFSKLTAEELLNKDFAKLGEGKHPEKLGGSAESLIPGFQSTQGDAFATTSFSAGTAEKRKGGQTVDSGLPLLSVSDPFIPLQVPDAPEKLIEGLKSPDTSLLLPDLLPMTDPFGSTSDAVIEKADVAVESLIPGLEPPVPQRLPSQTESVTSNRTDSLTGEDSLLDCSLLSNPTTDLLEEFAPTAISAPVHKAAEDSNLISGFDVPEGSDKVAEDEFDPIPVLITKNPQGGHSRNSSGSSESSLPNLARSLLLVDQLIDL

MST1 = target: T2, MST1 (Homo sapiens, UniProt Q13043)
T2 sequence (Q13043 1-487): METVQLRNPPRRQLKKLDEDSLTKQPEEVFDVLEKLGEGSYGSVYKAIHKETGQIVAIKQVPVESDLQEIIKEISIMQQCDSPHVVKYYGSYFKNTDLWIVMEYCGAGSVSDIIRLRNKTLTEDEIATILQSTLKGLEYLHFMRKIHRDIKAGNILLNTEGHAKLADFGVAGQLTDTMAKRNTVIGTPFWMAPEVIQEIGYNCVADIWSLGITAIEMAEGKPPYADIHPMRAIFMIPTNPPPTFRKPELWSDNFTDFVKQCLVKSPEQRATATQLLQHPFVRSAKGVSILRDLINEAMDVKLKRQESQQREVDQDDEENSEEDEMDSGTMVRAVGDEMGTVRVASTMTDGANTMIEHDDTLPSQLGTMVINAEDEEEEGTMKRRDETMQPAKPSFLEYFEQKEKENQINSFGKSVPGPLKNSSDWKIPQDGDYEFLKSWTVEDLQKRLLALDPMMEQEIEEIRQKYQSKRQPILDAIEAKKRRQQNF

CK1d = CK1d (Homo sapiens, UniProt P48730)
Chain of CK1d (P48730 whole entry): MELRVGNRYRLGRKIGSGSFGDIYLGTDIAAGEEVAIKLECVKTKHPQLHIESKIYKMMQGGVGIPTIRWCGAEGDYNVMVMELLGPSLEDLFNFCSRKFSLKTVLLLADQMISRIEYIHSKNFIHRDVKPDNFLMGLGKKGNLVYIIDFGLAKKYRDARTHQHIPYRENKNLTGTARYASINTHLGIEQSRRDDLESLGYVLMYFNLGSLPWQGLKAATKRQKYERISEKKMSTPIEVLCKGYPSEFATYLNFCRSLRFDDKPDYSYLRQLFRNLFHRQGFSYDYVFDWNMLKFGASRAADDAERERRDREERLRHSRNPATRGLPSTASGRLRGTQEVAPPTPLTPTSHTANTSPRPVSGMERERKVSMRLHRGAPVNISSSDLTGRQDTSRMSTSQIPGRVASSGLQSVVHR

PCTAIRE1 = PCTAIRE1 (Homo sapiens, UniProt Q00536)
Chain of PCTAIRE1 (Q00536 whole entry): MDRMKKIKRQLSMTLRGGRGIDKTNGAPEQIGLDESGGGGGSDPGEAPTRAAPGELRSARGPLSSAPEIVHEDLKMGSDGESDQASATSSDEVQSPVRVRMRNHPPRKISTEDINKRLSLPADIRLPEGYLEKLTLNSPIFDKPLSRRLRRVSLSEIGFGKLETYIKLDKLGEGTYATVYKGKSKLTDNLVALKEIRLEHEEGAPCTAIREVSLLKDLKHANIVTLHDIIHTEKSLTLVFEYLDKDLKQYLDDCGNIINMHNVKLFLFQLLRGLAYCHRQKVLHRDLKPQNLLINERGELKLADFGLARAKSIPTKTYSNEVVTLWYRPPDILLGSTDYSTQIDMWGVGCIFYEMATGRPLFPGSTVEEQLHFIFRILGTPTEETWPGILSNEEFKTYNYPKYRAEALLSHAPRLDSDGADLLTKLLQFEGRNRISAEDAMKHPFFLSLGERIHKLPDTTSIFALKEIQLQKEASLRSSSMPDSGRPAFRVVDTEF

EphA2 = EphA2 (Homo sapiens, UniProt P29317)

Chain of ABL1 (P00519 whole entry): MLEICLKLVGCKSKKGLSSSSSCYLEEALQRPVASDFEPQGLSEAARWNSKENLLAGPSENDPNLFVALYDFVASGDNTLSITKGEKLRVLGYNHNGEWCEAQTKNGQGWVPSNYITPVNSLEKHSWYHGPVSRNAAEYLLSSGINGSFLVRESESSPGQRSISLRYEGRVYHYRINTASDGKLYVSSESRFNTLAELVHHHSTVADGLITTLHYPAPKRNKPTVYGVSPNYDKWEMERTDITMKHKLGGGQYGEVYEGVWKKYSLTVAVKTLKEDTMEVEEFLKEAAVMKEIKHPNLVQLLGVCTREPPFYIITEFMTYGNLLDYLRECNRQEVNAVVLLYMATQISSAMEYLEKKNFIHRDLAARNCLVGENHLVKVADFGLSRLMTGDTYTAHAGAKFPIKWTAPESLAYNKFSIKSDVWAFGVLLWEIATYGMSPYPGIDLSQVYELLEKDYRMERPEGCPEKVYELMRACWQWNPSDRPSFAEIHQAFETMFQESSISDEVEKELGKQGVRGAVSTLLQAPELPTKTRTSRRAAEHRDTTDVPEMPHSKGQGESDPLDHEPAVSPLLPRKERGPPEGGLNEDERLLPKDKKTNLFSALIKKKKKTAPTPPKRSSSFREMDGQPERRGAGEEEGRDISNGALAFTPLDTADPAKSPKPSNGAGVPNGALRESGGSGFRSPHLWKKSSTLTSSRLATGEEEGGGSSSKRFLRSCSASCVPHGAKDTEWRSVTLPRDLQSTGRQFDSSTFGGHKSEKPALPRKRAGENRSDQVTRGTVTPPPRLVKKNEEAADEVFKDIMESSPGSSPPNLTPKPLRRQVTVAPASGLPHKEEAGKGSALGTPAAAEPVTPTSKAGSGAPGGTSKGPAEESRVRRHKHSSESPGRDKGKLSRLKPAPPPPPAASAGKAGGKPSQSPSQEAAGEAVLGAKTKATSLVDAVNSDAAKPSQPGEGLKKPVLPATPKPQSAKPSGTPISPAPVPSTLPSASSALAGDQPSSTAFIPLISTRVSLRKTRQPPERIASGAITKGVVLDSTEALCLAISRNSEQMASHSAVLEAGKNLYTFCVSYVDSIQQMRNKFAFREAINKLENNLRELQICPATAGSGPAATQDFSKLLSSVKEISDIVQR
Chain of NDR2 (Q9Y2H1 whole entry): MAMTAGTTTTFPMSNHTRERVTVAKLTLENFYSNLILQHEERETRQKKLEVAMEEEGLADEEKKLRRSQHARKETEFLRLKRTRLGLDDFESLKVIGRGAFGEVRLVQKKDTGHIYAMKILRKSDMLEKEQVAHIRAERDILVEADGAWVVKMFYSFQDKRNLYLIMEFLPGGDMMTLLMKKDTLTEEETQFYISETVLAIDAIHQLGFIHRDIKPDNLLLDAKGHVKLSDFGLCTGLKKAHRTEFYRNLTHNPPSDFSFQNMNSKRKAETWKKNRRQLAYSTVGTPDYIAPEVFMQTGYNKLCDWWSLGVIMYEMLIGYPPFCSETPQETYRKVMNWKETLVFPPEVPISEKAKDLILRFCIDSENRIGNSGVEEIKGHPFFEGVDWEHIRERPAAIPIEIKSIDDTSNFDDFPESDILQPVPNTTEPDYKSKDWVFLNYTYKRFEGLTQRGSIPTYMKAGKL

`Cc1cccc(-c2ccc(-c3cc4cnc(Nc5cc(C(F)(F)F)ccc5C)nc4n(CCCCN)c3=O)c(Cl)c2)n1` [compound 28, 8-(4-Aminobutyl)-6-(2-chloro-4-(6-methylpyridin-2-yl)phenyl)-2-((2-methyl-5-(trifluoromethyl)phenyl)amino)pyrido[2,3-d]pyrimidin-7(8H)-one] was tested, and the “ΔTm 28” value (ABL1) was 6.9 °C, the “ΔTm 28” value (NDR2) was 7.1 °C and the “ΔTm 28” value (BRPF1) was -1.6 °C. The “ΔTm 28” value (AKT3) was 0.3 °C, the “ΔTm 28” value (FGFR2) was 3.8 °C and the “ΔTm 28” value (AAK1) was -0.1 °C. For the same compound, the “ΔTm 28” value (MST1) was -1.6 °C, the “ΔTm 28” value (CK1d) was 1.4 °C and the “ΔTm 28” value (PCTAIRE1) was 1.1 °C. The “ΔTm 28” value (EphA2) was 4.5 °C.
`Cc1cccc(-c2ccc(-c3cc4cnc(Nc5ccc(CCCO)cc5)nc4n(CCCCN)c3=O)c(Cl)c2)n1` [compound 30, 8-(4-Aminobutyl)-6-(2-chloro-4-(6-methylpyridin-2-yl)phenyl)-2-((4-(3-hydroxypropyl)phenyl)amino)pyrido[2,3-d]pyrimidin-7(8H)-one] was tested, and the “ΔTm 30” value (ABL1) was 10.3 °C, the “ΔTm 30” value (NDR2) was 10.7 °C and the “ΔTm 30” value (BRPF1) was -4.4 °C. The “ΔTm 30” value (AKT3) was 4.3 °C, the “ΔTm 30” value (FGFR2) was 3.9 °C and the “ΔTm 30” value (AAK1) was 4.1 °C. The “ΔTm 30” value (MST1) was 1.7 °C, the “ΔTm 30” value (CK1d) was 2.8 °C and the “ΔTm 30” value (PCTAIRE1) was 5.0 °C. The “ΔTm 30” value (EphA2) was 7.7 °C.
With `Cc1cccc(-c2ccc(-c3cc4cnc(Nc5ccc(C)c(O)c5)nc4n(CCCCN)c3=O)c(Cl)c2)n1` [compound 32, 8-(4-Aminobutyl)-6-(2-chloro-4-(6-methylpyridin-2-yl)phenyl)-2-((3-hydroxy-4-methylphenyl)amino)pyrido[2,3-d]pyrimidin-7(8H)-one] the “ΔTm 32” value (ABL1) was 10.8 °C, the “ΔTm 32” value (NDR2) was 10.1 °C and the “ΔTm 32” value (BRPF1) was -1.4 °C. The “ΔTm 32” value (AKT3) was 3.6 °C, the “ΔTm 32” value (FGFR2) was 4.2 °C and the “ΔTm 32” value (AAK1) was 4.0 °C. For the same compound, the “ΔTm 32” value (MST1) was 1.6 °C, the “ΔTm 32” value (CK1d) was 2.3 °C and the “ΔTm 32” value (PCTAIRE1) was 4.8 °C. For the same compound, the “ΔTm 32” value (EphA2) was 7.9 °C.
`Cc1cccc(-c2ccc(-c3cc4cnc(NCCCN5CCCC5=O)nc4n(CCCCN)c3=O)c(Cl)c2)n1` [compound 27, MR30] was tested, and the “ΔTm MR30 (27)” value (ABL1) was 3.0 °C, the “ΔTm MR30 (27)” value (NDR2) was 1.5 °C and the “ΔTm MR30 (27)” value (BRPF1) was -1.8 °C. For the same compound, the “ΔTm MR30 (27)” value (AKT3) was 0.9 °C, the “ΔTm MR30 (27)” value (FGFR2) was 1.0 °C and the “ΔTm MR30 (27)” value (AAK1) was -0.5 °C. The “ΔTm MR30 (27)” value (MST1) was -1.0 °C, the “ΔTm MR30 (27)” value (CK1d) was 1.6 °C and the “ΔTm MR30 (27)” value (PCTAIRE1) was 2.9 °C. For the same compound, the “ΔTm MR30 (27)” value (EphA2) was 3.6 °C.
With `Cc1cccc(-c2ccc(-c3cc4cnc(Nc5ccc(O)cc5)nc4n(CCCCN)c3=O)c(Cl)c2)n1` [compound 31, 8-(4-Aminobutyl)-6-(2-chloro-4-(6-methylpyridin-2-yl)phenyl)-2-((4-hydroxyphenyl)amino) pyrido[2,3-d]pyrimidin-7(8H)-one] the “ΔTm 31” value (ABL1) was 10.6 °C, the “ΔTm 31” value (NDR2) was 9.9 °C and the “ΔTm 31” value (BRPF1) was -3.4 °C. For the same compound, the “ΔTm 31” value (AKT3) was 4.2 °C, the “ΔTm 31” value (FGFR2) was 3.9 °C and the “ΔTm 31” value (AAK1) was 4.0 °C. The “ΔTm 31” value (MST1) was 2.0 °C, the “ΔTm 31” value (CK1d) was 2.8 °C and the “ΔTm 31” value (PCTAIRE1) was 5.0 °C. For the same compound, the “ΔTm 31” value (EphA2) was 8.1 °C.
With `Cc1cccc(-c2ccc(-c3cc4cnc(NCCCN5CCNCC5)nc4n(CCCCN)c3=O)c(Cl)c2)n1` [compound 29, 8-(4-Aminobutyl)-6-(2-chloro-4-(6-methylpyridin-2-yl)phenyl)-2-((3-(piperazin-1-yl)propyl)amino)pyrido[2,3-d]pyrimidin-7(8H)-one] the “ΔTm 29” value (ABL1) was 4.0 °C, the “ΔTm 29” value (NDR2) was 4.9 °C and the “ΔTm 29” value (BRPF1) was -1.2 °C. For the same compound, the “ΔTm 29” value (AKT3) was 0.8 °C, the “ΔTm 29” value (FGFR2) was 1.7 °C and the “ΔTm 29” value (AAK1) was 0.0 °C. The “ΔTm 29” value (MST1) was -0.5 °C, the “ΔTm 29” value (CK1d) was 1.3 °C and the “ΔTm 29” value (PCTAIRE1) was 2.5 °C. The “ΔTm 29” value (EphA2) was 5.1 °C.
